Source: PubChem BioAssay AID403 (SGCOxCompounds, 2006)

Each compound was assayed against Receptor-type tyrosine-protein phosphatase eta (Homo sapiens) (UniProt Q12913) (assay: PTPRJ phosphatase inhibitors, biochemical, human, DiFMUP fluorescence (AID 403)). Settings: recombinant PTPRJ, 25 C, at 50 µM, enzyme 0.05 ng/mL, DTT 5 mM, hits give high values.
Chain of Receptor-type tyrosine-protein phosphatase eta (Homo sapiens) (Q12913 whole entry, looked up): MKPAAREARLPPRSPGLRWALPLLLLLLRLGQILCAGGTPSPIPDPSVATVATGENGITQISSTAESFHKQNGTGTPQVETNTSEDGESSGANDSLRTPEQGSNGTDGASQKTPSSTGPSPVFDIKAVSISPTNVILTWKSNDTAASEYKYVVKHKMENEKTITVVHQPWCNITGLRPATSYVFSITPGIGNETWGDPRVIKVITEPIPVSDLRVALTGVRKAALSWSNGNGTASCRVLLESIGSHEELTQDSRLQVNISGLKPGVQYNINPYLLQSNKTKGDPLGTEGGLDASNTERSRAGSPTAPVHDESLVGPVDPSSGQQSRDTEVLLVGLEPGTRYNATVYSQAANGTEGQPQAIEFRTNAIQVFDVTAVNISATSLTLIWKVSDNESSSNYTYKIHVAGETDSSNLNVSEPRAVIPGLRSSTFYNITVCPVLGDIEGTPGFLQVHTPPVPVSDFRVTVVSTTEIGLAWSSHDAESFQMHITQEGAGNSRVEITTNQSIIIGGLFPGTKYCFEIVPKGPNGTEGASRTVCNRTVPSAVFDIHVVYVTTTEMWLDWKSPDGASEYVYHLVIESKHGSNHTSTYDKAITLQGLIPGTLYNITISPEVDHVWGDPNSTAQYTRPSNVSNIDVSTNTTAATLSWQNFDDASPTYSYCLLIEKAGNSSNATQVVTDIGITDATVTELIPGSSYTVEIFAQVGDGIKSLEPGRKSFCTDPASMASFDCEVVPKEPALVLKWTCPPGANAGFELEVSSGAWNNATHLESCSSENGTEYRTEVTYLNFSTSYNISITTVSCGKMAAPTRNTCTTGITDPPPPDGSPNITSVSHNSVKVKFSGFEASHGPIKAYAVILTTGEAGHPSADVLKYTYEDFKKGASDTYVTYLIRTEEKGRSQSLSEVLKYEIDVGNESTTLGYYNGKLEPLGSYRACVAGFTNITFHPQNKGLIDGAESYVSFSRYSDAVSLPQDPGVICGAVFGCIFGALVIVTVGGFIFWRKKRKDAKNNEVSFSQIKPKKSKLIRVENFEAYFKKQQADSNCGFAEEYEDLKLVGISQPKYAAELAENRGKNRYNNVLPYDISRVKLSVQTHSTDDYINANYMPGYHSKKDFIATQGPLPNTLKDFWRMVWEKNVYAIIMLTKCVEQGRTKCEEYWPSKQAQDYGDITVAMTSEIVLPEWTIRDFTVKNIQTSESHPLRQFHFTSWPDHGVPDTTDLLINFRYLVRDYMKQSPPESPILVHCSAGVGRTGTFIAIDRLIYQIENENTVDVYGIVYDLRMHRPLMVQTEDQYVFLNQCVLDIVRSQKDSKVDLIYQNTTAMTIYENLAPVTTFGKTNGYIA

Structure (SMILES) | inhibition [%]
O=C1NC(=S)S/C1=C\C=C\c1ccc([N+](=O)[O-])o1 | 50
CC(C)(c1ccc(NS(=O)(=O)C(F)(F)F)cc1)c1ccc(C(C)(C)c2ccc(NS(=O)(=O)C(F)(F)F)cc2)cc1 | 66
[NH-]CO.[NH-]CO.[NH-]CO.[NH-]CO.[O]=[V][O][V]=[O] | 100
CN(N=O)c1ccc(O)c(O)c1 | 97
COc1ccc(-c2nc3cc(N=Cc4cc(C(=O)O)ccc4O)ccc3o2)cc1 | 67
Cc1ccc(N=Cc2cc(C(=O)O)ccc2O)c(O)c1 | 55
O=C(O)c1ccc(O)c(C=Nc2ccc3oc(-c4ccccc4)nc3c2)c1 | 52
O=C([O-])c1ccccn1.OO.OO.[K+].[K+].[O]=[V] | 100
O=C(O)c1ccc(O)cn1.OO.[O]=[V] | 92
O=C(O)c1ccc(O)c(N2C(=O)Nc3ccccc3N2O)c1 | 82
OO.OO.[K+].[O]=[V].c1ccc(-c2ccccn2)nc1 | 98
Cc1c(Cl)c(C)c([N+](=O)[O-])c(O)c1C=Nc1ccc(O)cc1C(=O)O | 95
O=C(O)c1ccc([O-])cn1.OO.OO.[K+].[K+].[O]=[V] | 99
